Laboratory results taken from US10076533B2, “Acyclic nucleoside phosphonate diesters” (The Regents of the University of California, priority 2013, dated 2018).
Read-outs that look alike come from different tables or passages of the source.

Tests used:
[1] = Cytotoxicity in MT-2 cells, flow cytometry cell counts and viability; type: cell-based, human; settings: human; MT-2 cells, 72 hrs
Description: (§1) MT-2 cells were incubated with drug for 72 hrs and harvested. Flow count beads (Beckman Coulter, Miami, Fla.) were added to the cell suspension followed by propidium iodide staining and analysis using flow cytometer and the 50% cytotoxic concentration (CC50) was calculated from the cell counts and viability.

[2] = system: Copenhagen strain of vaccinia virus; assay: microbe, parasite or virus in culture; type: cell-based; settings: for Selectivity Index: vaccinia virus (Copenhagen), HFF cells
[3] = system: HPV-11; assay: HPV-11 origin replication in HEK 293 cells, qPCR; type: cell-based; settings: for EC50: HPV-11 origin replication in HEK 293 cells, 48 hr, qPCR; for Selectivity Index: HPV-11, HEK 293 cells
Description: (§2) An origin-containing plasmid was co-transfected with HPV-11 E1 and E2 protein expression vectors into HEK 293 cells. At 4 hr post-transfection, cells were treated with compound dilutions and the cells were incubated for 48 hr. Replication of the virus origin was detected with DpnI and exonuclease III to remove unreplicated input bacterial plasmid DNA. Remaining replicated DNA was quantified by qPCR. Toxicity was determined by trypan blue exclusion.

[4] = Toxicity in HEK 293 cells by trypan blue exclusion (HPV-11 example); type: cell-based; settings: human
Description: as §2

[5] = system: HPV-16; assay: HPV-16 origin replication in HEK 293 cells, qPCR; type: cell-based; settings: for EC50: HEK293, HPV-16 origin replication in HEK 293 cells, 48 hr, qPCR, read-out: EC50; for Selectivity Index: HPV-16, HEK 293 cells
Description: as §2, with “HPV-16” for “HPV-11”

[6] = Toxicity in HEK 293 cells by trypan blue exclusion (HPV-16 example); type: cell-based; settings: human
Description: as §2, with “HPV-16” for “HPV-11”

[7] = in vitro; settings: human
[8] = Viability of PBMC by XTT reduction; settings: human, PHA-stimulated human PBMCs
[9] = system: HIV-1LAI; assay: HIV antiviral assay in MT-2 cells, p24 reduction; settings: for Selectivity Index: CC50/EC50, MT-2 cells
[10] = Cytotoxicity in 2.2.15 cells by neutral red uptake; settings: human
[11] = Cytotoxicity in HFF cells in parallel to HSV-2 assay; settings: human, […]
[12] = Cytotoxicity in HFF cells in parallel to HSV-1 assay; settings: human
[13] = African green monkey
[14] = system: Hepatitis B virus; assay: HBV replication in 2.2.15 cells, HBV DNA blot hybridization; settings: for EC50: Hepatitis B virus, 168 h; for Selectivity Index: hepatitis B virus, 2.2.15 cells
[15] = Cytotoxicity in HFF cells in parallel to cytomegalovirus assay; settings: human
[16] = system: MAD-1 strain of JC virus; assay: Antiviral effect in JC virus (MAD-1) infected COS7 cells, qPCR; settings: for Selectivity Index: JC virus (MAD-1), COS7 cells
[17] = Antiproliferative activity, neutral red, normal human fibroblasts
[18] = Toxicity in primary human keratinocyte raft cultures by histology
[19] = system: Hela (HPV-18); assay: Antiproliferative activity, neutral red, Hela cervical cancer cells; settings: Homo sapiens, 96 h, read-out: Cytotoxic concentration 50% (CC50) Hela (HPV-18)
[20] = system: Caski (HPV-16); assay: Antiproliferative activity, neutral red, Caski cervical cancer cells; settings: for CC50: Homo sapiens, Ca-Ski, 96 h, read-out: Cytotoxic concentration 50% (CC50) Caski (HPV-16); for fold more effective in reducing viable cell number in the cervical cancer lines than in normal, non-transformed human fibroblasts: cervical cancer lines (Caski, Hela) vs HFF
[21] = human
[22] = system: HIV-192US727; assay: Anti-HIV assay in human PBMC, supernatant reverse transcriptase activity; settings: for Selectivity Index: HIV-192US727, human PBMC
[23] = system: AD169 strain of human cytomegalovirus; assay: Antiviral effect in HFF cells infected with human cytomegalovirus (AD169); settings: for Selectivity Index: human cytomegalovirus (AD169), HFF cells
[24] = system: HPV-18; assay: Antiviral effect in HPV-18 infected primary human keratinocyte rafts, qPCR; settings: for Selectivity Index: HPV-18 keratinocyte rafts; for EC50: Homo sapiens, Keratinocyte
[25] = system: BK virus (Gardner strain); assay: Antiviral effect in HFF cells infected with BK virus (Gardner strain), qPCR; settings: for Selectivity Index: BK virus (Gardner strain), HFF cells
[26] = Effect of oral compounds on body weight in Balb-c mice; type: in vivo; settings: for body weight Day 0: before dosing
Description: Compounds were administered at the indicated doses by oral gavage daily for 5 days. Weights measured before and on day 6 after 5 doses.

[27] = system: MT-2 cells; assay: Cytotoxicity in MT-2 cells, flow cytometry cell counts and viability; type: cell-based, human
Description: as §1

[28] = in vitro; settings: human; remark: listed apart in the source
[29] = system: HEK 293 cells; assay: Toxicity in HEK 293 cells by trypan blue exclusion (HPV-11 example); type: cell-based
Description: as §2

[30] = system: human foreskin fibroblast (HFF) cells
[31] = system: Human peripheral blood monocyte (PBMC); assay: Viability of PBMC by XTT reduction; settings: human PBMC, XTT reduction
[32] = system: human foreskin fibroblast (HFF) cells; assay: Cytotoxicity in HFF cells in parallel to HSV-2 assay; settings: HFF cells
[33] = system: human foreskin fibroblast (HFF) cells; assay: Cytotoxicity in HFF cells in parallel to HSV-1 assay; settings: HFF cells, in parallel to HSV-1 assay
[34] = system: COS7 cells; settings: uninfected COS7 cells, […]
[35] = system: human foreskin fibroblast (HFF) cells; assay: Cytotoxicity in HFF cells in parallel to cytomegalovirus assay; settings: HFF cells, in parallel to cytomegalovirus assay
[36] = system: human foreskin fibroblast (HFF) cells; settings: uninfected HFF cells, […]
[37] = Orthopoxvirus vaccinia, HFF, 168 h
[38] = Human immunodeficiency virus 1, MT2, 96 h
[39] = normal human fibroblasts (HFF), monolayer culture
[40] = Human immunodeficiency virus 1, PBMC, 168 h
[41] = Human betaherpesvirus 5, AD169, HFF, 336 h
[42] = Betapolyomavirus hominis, HFF, 336 h

Structure (SMILES): CCCCCCCCCCCCCCCCCCOCCOP(=O)(CO[C@H](CO)Cn1cnc2c(N)ncnc21)OCc1ccccc1 (stereo partly drawn) [Compound 218, benzyl octadecyloxyethyl 9-(S)-[3-hydroxy-2-(phosphonomethoxy)propyl] adenine]
- CC50 at 72 h [1]: 2300 ± 1600 nM
- EC50 [2, 37]: < 30 nM
- Selectivity Index [2]: >3330
- EC50 ([3]; HEK293): 770 nM
- Selectivity Index [3]: >370
- CC50 at 48 h [4]: > 100000 nM
- EC50 [5]: 240 nM
- Selectivity Index [5]: >41.7
- CC50 at 48 h [6]: > 10000 nM
- CC50 [7]: > 100000 nM
- CC50 at 7 days [8]: 230 nM
- EC50 [9, 38]: 130 ± 140 nM
- CC50 at 7 days [10]: > 100000 nM
- CC50 at 3 days [11]: 6910 nM
- CC50 at 3 days ([12]; […]): 14500 nM
- CC50 at 7 days ([13]; uninfected COS7 cells): 10200 nM
- EC50 [14]: 760 nM
- Selectivity Index [14]: >132
- CC50 at 14 days ([15]; […]): 7490 nM
- EC50 ([16]; JC polyomavirus, COS-7, 168 h): > 4000 nM
- Selectivity Index [16]: <2.6
- CC50 at 4 days [17, 39]: 5200 nM
- CC50 [18]: > 10000 nM
- CC50 [19]: 29 nM
- CC50 [20]: 55 nM
- CC50 at 14 days [21]: 2800 nM
- Selectivity Index [22]: >23.0
- EC50 [22, 40]: < 10 nM
- EC50 [23, 41]: < 30 nM
- Selectivity Index [23]: >250
- Selectivity Index [24]: >39
- EC50 [24]: 250 nM
- Selectivity Index [25]: >93
- EC50 [25, 42]: < 30 nM

Structure (SMILES): CCCCCCCCCCCCCCCCCCOCCOP(=O)(CO[C@H](CO)Cn1ccc(N)nc1=O)OCc1ccccc1 (stereo partly drawn) [Compound 219, benzyl octadecyloxyethyl 1-(S)-[(3-hydroxy-2-phosphonomethoxy)propyl]cytosine]
- CC50 at 72 h [1]: 18000 ± 3600 nM
- body weight Day 6 ([26]; 20 mg/kg/day oral gavage daily for 5 days): 19.27 ± 1.32 (6)
- body weight Day 0 ([26]; 20 mg/kg/day oral gavage): 19.03 ± 1.16 (6)
- EC50 [2, 37]: 90 nM
- Selectivity Index [2]: >1110
- EC50 ([3]; HEK293): 2040 nM
- Selectivity Index [3]: >4.9
- CC50 at 48 h [4]: > 10000 nM
- EC50 [5]: 2230 nM
- Selectivity Index [5]: >4.48
- CC50 at 48 h [6]: > 10000 nM
- CC50 [7]: > 100000 nM
- CC50 at 7 days [8]: 2870 nM
- Selectivity Index [9]: 6.7
- EC50 [9, 38]: 2700 ± 2100 nM
- CC50 at 7 days [10]: > 100000 nM
- CC50 at 3 days [11]: 13100 nM
- CC50 at 3 days ([12]; […]): 19300 nM
- CC50 at 7 days ([13]; uninfected COS7 cells): 12800 nM
- EC50 [14]: 450 nM
- Selectivity Index [14]: >223
- CC50 at 14 days ([15]; […]): 84200 nM
- EC50 ([16]; JC polyomavirus, COS-7, 168 h): > 4000 nM
- Selectivity Index [16]: <3.2
- CC50 at 4 days [17, 39]: 52000 nM
- CC50 [18]: > 10000 nM
- CC50 [19]: 2200 nM
- CC50 [20]: 2000 nM
- fold more effective in reducing viable cell number in the cervical cancer lines than in normal, non-transformed human fibroblasts [20]: 23.6 fold
- CC50 at 14 days [21]: 6540 nM
- Selectivity Index [22]: >28.7
- EC50 [22, 40]: < 100 nM
- EC50 [23, 41]: < 30 nM
- Selectivity Index [23]: >2807
- Selectivity Index [24]: >9.4
- EC50 [24]: 1060 nM
- Selectivity Index [25]: >218
- EC50 [25, 42]: < 30 nM

Structure (SMILES): CCCCCCCCCCCCCCCCCCOCCOP(=O)(COCCn1cnc2c(=O)[nH]c(N)nc21)OCc1ccccc1 (racemic) [Compound 1, benzyl octadecyloxyethyl 9-(2-phosphonomethoxyethyl)guanine]
- CC50 at 72 h [1]: 36 ± 40 nM
- CC50 ([27]; Homo sapiens, MT2, 72 h, read-out: CC50, 50% Cytotoxic concentration MT2 cells T cell leukemia): 36 ± 40 nM
- body weight Day 6 ([26]; 4 mg/kg/day oral gavage daily for 5 days): 18.42 ± 1.00 (3)
- body weight Day 0 ([26]; 4 mg/kg/day oral gavage): 18.63 ± 0.728 (3)
- EC50 ([3]; HEK293): 490 nM
- Selectivity Index [3]: >204
- CC50 at 48 h [4]: > 100000 nM
- EC50 [5]: 200 nM
- Selectivity Index [5]: >50
- CC50 [6]: > 10000 nM
- CC50 [28]: 40 nM
- Selectivity Index [9]: >3600
- EC50 [9, 38]: < 0.01 nM
- CC50 at 7 days [10]: > 100000 nM
- CC50 at 3 days [12]: > 100000 nM
- CC50 at 7 days [13]: 63800 nM
- EC50 [14]: 440 nM
- Selectivity Index [14]: >226
- CC50 at 14 days [15]: 51500 nM
- EC50 ([16]; JC polyomavirus, COS-7, 168 h): 70 nM
- Selectivity Index [16]: 911
- CC50 at 4 days [17]: 15000 nM
- CC50 [18]: 10000 nM
- CC50 [19]: 9 nM
- CC50 [20]: 4 nM
- fold more effective in reducing viable cell number in the cervical cancer lines than in normal, non-transformed human fibroblasts [20]: 3,750 fold
- CC50 at 14 days [21]: 3060 nM
- Selectivity Index [22]: >4.0
- EC50 [22, 40]: < 10 nM
- EC50 [23, 41]: < 30 nM
- Selectivity Index [23]: >1717
- Selectivity Index [24]: 48
- EC50 [24]: 210 nM
- Selectivity Index [25]: >102
- EC50 [25, 42]: < 30 nM

Structure (SMILES): CCCCCCCCCCCCCCCCCCOC[C@H](COP(=O)(CO[C@H](CO)Cn1ccc(N)nc1=O)OCc1ccccc1)OCc1ccccc1 (stereo partly drawn) [Compound 231, benzyl 1-O-octadecyl-2-O-benzyl-sn-glyceryl 1-(S)-[3-hydroxy-2-(phosphonomethoxy)propyl]cytosine]
- CC50 ([27]; MT-2 cells, 72 hrs, read-out: CC50): 22000 ± 3000 nM
- EC50 ([2]; HFF cells infected with vaccinia virus (Copenhagen), 7 days, crystal violet, read-out: EC50): 230 nM
- EC50 [3]: 1560 nM
- CC50 [29]: > 10000 nM
- CC50 [30]: > 100000 nM
- CC50 [31]: 19000 nM
- Selectivity Index [9]: 10
- EC50 ([9]; HIV-1 infected MT-2 cells, p24 reduction, four days): 2200 ± 2100 nM
- CC50 [32]: 34800 nM
- CC50 [33]: 88300 nM
- CC50 [34]: 62600 nM
- CC50 [35]: 19000 nM
- EC50 ([16]; COS7 cells infected with JC virus (MAD-1), 7 days, qPCR): > 20000 nM
- CC50 [36]: 13300 nM
- EC50 ([22]; HIV-192US727 infected human PBMC, 7 days, supernatant reverse transcriptase activity): < 300 nM
- EC50 ([23]; HFF cells infected with human cytomegalovirus (AD169), 14 days, crystal violet): < 30 nM
- EC50 ([25]; HFF cells infected with BK virus (Gardner strain), 14 days, qPCR): < 30 nM
